Measurements from US20230365576A1, “BRM Targeting Compounds And Associated Methods Of Use” (Prelude Therapeutics Incorporated, priority 2022, published 2023).

Assays:
[1] = target: T1, SMARCA2 (Homo sapiens, UniProt P51531); assay: SMARCA2 HiBiT degradation assay in HeLa cells; assay type: cell-based; conditions: 18 hours; for DC50: read-out: SMARCA2 IC50; for Dmax: HeLa
T1 construct: SMARCA2-HiBiT knock-in Hela monoclonal cell (CS302366); host or cells: HeLa (CRISPR HiBiT knock-in monoclonal line, heterozygous)
T1 sequence (P51531 whole entry): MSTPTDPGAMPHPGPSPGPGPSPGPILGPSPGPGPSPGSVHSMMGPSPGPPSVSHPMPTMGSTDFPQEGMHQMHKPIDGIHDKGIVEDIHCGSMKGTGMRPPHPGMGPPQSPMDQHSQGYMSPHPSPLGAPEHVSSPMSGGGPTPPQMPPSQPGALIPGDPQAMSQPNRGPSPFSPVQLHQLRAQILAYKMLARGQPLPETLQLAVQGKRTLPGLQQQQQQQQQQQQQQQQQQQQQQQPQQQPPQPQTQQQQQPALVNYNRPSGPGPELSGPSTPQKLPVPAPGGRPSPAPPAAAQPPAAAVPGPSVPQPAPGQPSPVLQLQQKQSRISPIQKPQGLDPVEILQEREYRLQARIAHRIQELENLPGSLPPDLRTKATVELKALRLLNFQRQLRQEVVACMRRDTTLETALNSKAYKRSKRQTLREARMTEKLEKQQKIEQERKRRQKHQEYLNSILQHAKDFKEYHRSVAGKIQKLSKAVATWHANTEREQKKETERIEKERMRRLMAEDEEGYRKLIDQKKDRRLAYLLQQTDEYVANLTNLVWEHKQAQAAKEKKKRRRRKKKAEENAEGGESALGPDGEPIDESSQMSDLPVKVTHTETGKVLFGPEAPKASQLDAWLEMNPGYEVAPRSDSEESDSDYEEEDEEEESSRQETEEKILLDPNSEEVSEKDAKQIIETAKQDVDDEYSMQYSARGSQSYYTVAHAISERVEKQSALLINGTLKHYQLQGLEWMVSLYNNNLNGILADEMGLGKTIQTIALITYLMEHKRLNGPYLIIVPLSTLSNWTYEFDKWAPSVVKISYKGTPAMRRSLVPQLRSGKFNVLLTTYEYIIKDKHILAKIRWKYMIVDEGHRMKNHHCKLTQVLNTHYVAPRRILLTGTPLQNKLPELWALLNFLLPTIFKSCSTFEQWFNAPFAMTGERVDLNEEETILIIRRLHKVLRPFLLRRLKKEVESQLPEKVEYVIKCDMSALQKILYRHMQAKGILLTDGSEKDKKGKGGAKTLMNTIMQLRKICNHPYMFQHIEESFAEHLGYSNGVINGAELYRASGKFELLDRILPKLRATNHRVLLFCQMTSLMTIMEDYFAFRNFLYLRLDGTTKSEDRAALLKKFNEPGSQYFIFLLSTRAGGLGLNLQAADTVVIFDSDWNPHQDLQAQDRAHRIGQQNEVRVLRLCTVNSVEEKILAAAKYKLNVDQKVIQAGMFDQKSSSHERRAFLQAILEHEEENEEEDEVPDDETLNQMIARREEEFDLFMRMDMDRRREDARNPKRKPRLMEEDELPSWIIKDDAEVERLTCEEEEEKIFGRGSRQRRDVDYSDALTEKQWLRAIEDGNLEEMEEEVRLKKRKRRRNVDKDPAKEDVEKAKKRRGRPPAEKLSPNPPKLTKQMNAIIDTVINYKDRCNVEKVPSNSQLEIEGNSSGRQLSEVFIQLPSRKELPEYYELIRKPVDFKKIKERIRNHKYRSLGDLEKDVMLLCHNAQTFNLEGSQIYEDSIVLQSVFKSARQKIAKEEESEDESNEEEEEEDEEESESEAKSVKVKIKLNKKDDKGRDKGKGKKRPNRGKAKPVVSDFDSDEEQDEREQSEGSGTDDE
Method in brief: (§1)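 Degradation measured as HiBiT luminescence (Nano-Glo lytic reagent) after 18 h compound exposure at 37° C. Cells were HeLa clones carrying heterozygous HiBiT tags on SMARCA2 or SMARCA4, 2500 per well; compounds at 3-fold serial dilution from 10 μM.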

[2] = target: T2, SMARCA4 (Homo sapiens, UniProt P51532); assay: SMARCA4 HiBiT degradation assay in HeLa cells; assay type: cell-based; conditions: 18 hours; for Dmax: HeLa
T2 construct: SMARCA4-HiBiT knock-in Hela monoclonal cell (CS3023226) were purchased from Promega; host or cells: HeLa (CRISPR HiBiT knock-in monoclonal line, heterozygous)
T2 sequence (P51532 whole entry): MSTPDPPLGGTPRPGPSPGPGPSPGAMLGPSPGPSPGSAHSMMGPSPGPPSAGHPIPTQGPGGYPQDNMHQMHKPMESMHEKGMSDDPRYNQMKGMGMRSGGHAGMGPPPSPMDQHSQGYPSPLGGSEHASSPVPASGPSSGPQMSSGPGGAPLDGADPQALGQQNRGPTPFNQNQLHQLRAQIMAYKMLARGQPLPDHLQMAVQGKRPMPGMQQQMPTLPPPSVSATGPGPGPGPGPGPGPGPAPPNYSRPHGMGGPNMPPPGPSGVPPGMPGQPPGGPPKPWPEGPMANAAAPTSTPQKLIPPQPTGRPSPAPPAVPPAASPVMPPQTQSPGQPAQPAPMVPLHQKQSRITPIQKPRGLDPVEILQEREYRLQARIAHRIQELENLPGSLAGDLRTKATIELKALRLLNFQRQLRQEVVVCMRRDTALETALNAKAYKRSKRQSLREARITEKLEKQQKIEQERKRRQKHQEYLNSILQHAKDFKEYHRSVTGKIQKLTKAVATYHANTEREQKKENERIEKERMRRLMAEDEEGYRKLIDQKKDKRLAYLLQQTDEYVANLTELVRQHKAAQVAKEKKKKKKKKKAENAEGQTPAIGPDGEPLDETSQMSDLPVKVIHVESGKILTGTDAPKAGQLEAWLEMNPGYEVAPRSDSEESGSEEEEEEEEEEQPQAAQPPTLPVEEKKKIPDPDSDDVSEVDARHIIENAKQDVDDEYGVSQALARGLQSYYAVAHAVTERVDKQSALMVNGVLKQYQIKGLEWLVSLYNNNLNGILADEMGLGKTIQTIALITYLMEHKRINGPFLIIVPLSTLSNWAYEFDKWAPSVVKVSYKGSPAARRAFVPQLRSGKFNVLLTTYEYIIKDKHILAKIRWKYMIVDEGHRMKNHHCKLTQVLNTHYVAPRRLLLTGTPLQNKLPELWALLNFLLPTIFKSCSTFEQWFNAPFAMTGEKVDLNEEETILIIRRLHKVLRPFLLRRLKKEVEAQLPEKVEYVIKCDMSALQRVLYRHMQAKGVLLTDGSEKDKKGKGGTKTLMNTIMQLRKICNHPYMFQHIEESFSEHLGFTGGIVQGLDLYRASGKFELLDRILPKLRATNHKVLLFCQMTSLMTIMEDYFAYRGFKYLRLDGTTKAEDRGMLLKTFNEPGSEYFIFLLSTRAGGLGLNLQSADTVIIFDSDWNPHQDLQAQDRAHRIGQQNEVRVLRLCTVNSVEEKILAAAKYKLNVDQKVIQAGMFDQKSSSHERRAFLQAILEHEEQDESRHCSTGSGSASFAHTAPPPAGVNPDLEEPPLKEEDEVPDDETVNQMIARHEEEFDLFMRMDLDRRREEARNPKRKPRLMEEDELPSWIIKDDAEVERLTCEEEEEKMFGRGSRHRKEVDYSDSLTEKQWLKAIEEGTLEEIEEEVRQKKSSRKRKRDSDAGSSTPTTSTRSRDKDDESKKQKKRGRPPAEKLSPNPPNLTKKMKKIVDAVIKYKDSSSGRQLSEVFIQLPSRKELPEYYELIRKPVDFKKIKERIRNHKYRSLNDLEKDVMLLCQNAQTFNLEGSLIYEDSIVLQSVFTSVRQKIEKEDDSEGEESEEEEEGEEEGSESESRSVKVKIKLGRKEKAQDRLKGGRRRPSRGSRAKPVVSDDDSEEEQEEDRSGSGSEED
Method in brief: as §1

DC50 [1] | Dmax [1] | DC50 [2] | SMARCA4 DMax % [2] | SMARCA2 DMax % [1] | Dmax [2] | Dmax ([2]; given as a number) | Structure (SMILES)
< 100 nM | > 75% | < 100 nM | A (A=Dmax>75%) | – | – | – | CC1(C)CC(CN2CCN(c3ccc4c(c3)C(=O)N([C@H]3CCC(=O)NC3=O)C4)CC2)CCN1C(=O)N1CCN2c3cc(-c4cccc(F)c4O)nnc3NCC2(C)C1 (single isomer, unassigned) [Example 123]
< 100 nM | – | < 100 nM | B (B=50%<Dmax≤75%) | A (A=Dmax>75%) | – | – | CC1(C)CC(CN2CCN(c3ccc4c(c3)C(=O)N([C@H]3CCC(=O)NC3=O)C4)CC2)CCN1C(=O)N1CCN2c3cc(-c4cccc(F)c4O)nnc3NCC2(C)C1 (single isomer, unassigned) [Example 124]
< 100 nM | > 75% | < 100 nM | – | – | – | 51% | CC1(C)CN(CC2CCN(c3ccc4c(c3)C(=O)N([C@H]3CCC(=O)NC3=O)C4)CC2)CCN1C(=O)N1CCN2c3cc(-c4cc(F)cc(F)c4O)nnc3NC[C@H]2C1 [Example 19, (S)-3-(6-(4-((4-((S)-2-(3,5-difluoro-2-hydroxyphenyl)-6,6a,7,8,9,10-hexahydro-5H-pyrazino[1′,2′:4,5]pyrazino[2,3-c]pyridazine-8-carbonyl)-3,3-dimethylpiperazin-1-yl)methyl)piperidin-1-yl)-1-oxoisoindolin-2-yl)piperidine-2,6-dione]
< 100 nM | > 75% | < 100 nM | – | – | < 50% | – | C[C@@H]1CN(CC2CN(c3ccc4c(c3)C(=O)N(C3CCC(=O)NC3=O)C4)C2)C[C@H](C)N1C(=O)N1CCN2c3cc(-c4cc(F)cc(F)c4O)nnc3NC[C@H]2C1 (stereo partly drawn) [Example 20, 3-(6-(3-(((3R,5S)-4-((S)-2-(3,5-difluoro-2-hydroxyphenyl)-6,6a,7,8,9,10-hexahydro-5H-pyrazino[1′,2′:4,5]pyrazino[2,3-c]pyridazine-8-carbonyl)-3,5-dimethylpiperazin-1-yl)methyl)azetidin-1-yl)-1-oxoisoindolin-2-yl)piperidine-2,6-dione]
< 100 nM | > 75% | < 100 nM | – | – | < 50% | – | C[C@@H]1CN(C[C@H]2CN(c3ccc4c(c3)CN(C3CCC(=O)NC3=O)C4=O)CCO2)C[C@H](C)N1C(=O)N1CCN2c3cc(-c4cc(F)cc(F)c4O)nnc3NC[C@H]2C1 (stereo partly drawn) [Example 21, 3-(5-((S)-2-(((3R,5S)-4-((S)-2-(3,5-difluoro-2-hydroxyphenyl)-6,6a,7,8,9,10-hexahydro-5H-pyrazino[1′,2′:4,5]pyrazino[2,3-c]pyridazine-8-carbonyl)-3,5-dimethylpiperazin-1-yl)methyl)morpholino)-1-oxoisoindolin-2-yl)piperidine-2,6-dione]
< 100 nM | > 75% | < 100 nM | – | – | 50 to 75% | – | CC1(C)CN(CC2CCN(c3ccc4c(c3)C(=O)N(C3CCC(=O)NC3=O)C4)CC2)CCN1C(=O)N1CCN2c3cc(-c4cc(F)cc(F)c4O)nnc3NC[C@H]2C1 (stereo partly drawn) [Example 22, 3-(6-(4-((4-((S)-2-(3,5-difluoro-2-hydroxyphenyl)-6,6a,7,8,9,10-hexahydro-5H-pyrazino[1′,2′:4,5]pyrazino[2,3-c]pyridazine-8-carbonyl)-3,3-dimethylpiperazin-1-yl)methyl)piperidin-1-yl)-1-oxoisoindolin-2-yl)piperidine-2,6-dione]
< 100 nM | > 75% | < 100 nM | – | – | < 50% | – | CC1(C)CN(CC2CN(c3ccc4c(c3)C(=O)N(C3CCC(=O)NC3=O)C4)C2)CCN1C(=O)N1CCN2c3cc(-c4cc(F)cc(F)c4O)nnc3NC[C@H]2C1 (stereo partly drawn) [Example 23, 3-(6-(3-((4-((S)-2-(3,5-difluoro-2-hydroxyphenyl)-6,6a,7,8,9,10-hexahydro-5H-pyrazino[1′,2′:4,5]pyrazino[2,3-c]pyridazine-8-carbonyl)-3,3-dimethylpiperazin-1-yl)methyl)azetidin-1-yl)-1-oxoisoindolin-2-yl)piperidine-2,6-dione]
< 100 nM | > 75% | > 1000 nM | – | – | < 50% | – | C[C@@H]1CN(CC2CN(c3ccc4c(c3)C(=O)N(C3CCC(=O)NC3=O)C4)C2)C[C@H](C)N1C(=O)N1C[C@@H]2CNc3nnc(-c4cc(F)cc(F)c4O)cc3N2C[C@@H]1C (stereo partly drawn) [Example 24, 3-(6-(3-(((3S,5R)-4-((6aS,9S)-2-(3,5-difluoro-2-hydroxyphenyl)-9-methyl-6,6a,7,8,9,10-hexahydro-5H-pyrazino[1′,2′:4,5]pyrazino[2,3-c]pyridazine-8-carbonyl)-3,5-dimethylpiperazin-1-yl)methyl)azetidin-1-yl)-1-oxoisoindolin-2-yl)piperidine-2,6-dione]

The next lines start with the compound.

Structure (SMILES) | DC50 [1] | Dmax [1] | DC50 [2] | SMARCA4 DMax % [2] | SMARCA2 DMax % [1] | Dmax [2] | Dmax ([2]; given as a number)
C[C@@H]1CN(CC2CCN(c3ccc4c(c3)C(=O)N(C3CCC(=O)NC3=O)C4)CC2)C[C@H](C)N1C(=O)N1CCN2c3cc(-c4cccc(F)c4O)nnc3NC[C@H]2C1 (stereo partly drawn) [Example 1, 3-(6-(4-(((3R,5S)-4-((S)-2-(3-fluoro-2-hydroxyphenyl)-6,6a,7,8,9,10-hexahydro-5H-pyrazino[1′,2′:4,5]pyrazino[2,3-c]pyridazine-8-carbonyl)-3,5-dimethylpiperazin-1-yl)methyl)piperidin-1-yl)-1-oxoisoindolin-2-yl)piperidine-2,6-dione] | < 100 nM | > 75% | < 100 nM | – | – | < 50% | –
C[C@@H]1CN(CC2CN(c3ccc4c(c3)C(=O)N(C3CCC(=O)NC3=O)C4)C2)C[C@H](C)N1C(=O)N1CCN2c3cc(-c4cccc(F)c4O)nnc3NC[C@H]2C1 (stereo partly drawn) [Example 2, 3-(6-(3-(((3R,5S)-4-((S)-2-(3-fluoro-2-hydroxyphenyl)-6,6a,7,8,9,10-hexahydro-5H-pyrazino[1′,2′:4,5]pyrazino[2,3-c]pyridazine-8-carbonyl)-3,5-dimethylpiperazin-1-yl)methyl)azetidin-1-yl)-1-oxoisoindolin-2-yl)piperidine-2,6-dione] | < 100 nM | > 75% | < 100 nM | – | – | < 50% | –
C[C@@H]1CN(C[C@H]2CN(c3ccc4c(c3)CN(C3CCC(=O)NC3=O)C4=O)CCO2)C[C@H](C)N1C(=O)N1CCN2c3cc(-c4cccc(F)c4O)nnc3NC[C@H]2C1 (stereo partly drawn) [Example 3, 3-(5-((S)-2-(((3R,5S)-4-((S)-2-(3-fluoro-2-hydroxyphenyl)-6,6a,7,8,9,10-hexahydro-5H-pyrazino[1′,2′:4,5]pyrazino[2,3-c]pyridazine-8-carbonyl)-3,5-dimethylpiperazin-1-yl)methyl)morpholino)-1-oxoisoindolin-2-yl)piperidine-2,6-dione] | < 100 nM | > 75% | < 100 nM | – | – | < 50% | –
C[C@H]1CN2c3cc(-c4cccc(F)c4O)nnc3NC[C@H]2CN1C(=O)N1CCN(CC2CCN(c3ccc4c(c3)C(=O)N(C3CCC(=O)NC3=O)C4)CC2)CC1(C)C (stereo partly drawn) [Example 4, 3-(6-(4-((4-((6aS,9S)-2-(3-fluoro-2-hydroxyphenyl)-9-methyl-6,6a,7,8,9,10-hexahydro-5H-pyrazino[1′,2′:4,5]pyrazino[2,3-c]pyridazine-8-carbonyl)-3,3-dimethylpiperazin-1-yl)methyl)piperidin-1-yl)-1-oxoisoindolin-2-yl)piperidine-2,6-dione] | < 100 nM | > 75% | < 100 nM | – | – | < 50% | –
CC1(C)CN(CC2CCN(c3ccc4c(c3)C(=O)N(C3CCC(=O)NC3=O)C4)CC2)CCN1C(=O)N1CCN2c3cc(-c4cccc(F)c4O)nnc3NC[C@H]2C1 (stereo partly drawn) [Example 5, 3-(6-(4-((4-((S)-2-(3-fluoro-2-hydroxyphenyl)-6,6a,7,8,9,10-hexahydro-5H-pyrazino[1′,2′:4,5]pyrazino[2,3-c]pyridazine-8-carbonyl)-3,3-dimethylpiperazin-1-yl)methyl)piperidin-1-yl)-1-oxoisoindolin-2-yl)piperidine-2,6-dione] | < 100 nM | > 75% | < 100 nM | – | – | < 50% | –
C[C@@H]1CN(CC2CCN(c3ccc4c(c3)C(=O)N(C3CCC(=O)NC3=O)C4)CC2)C[C@H](C)N1C(=O)N1CCN2c3cc(-c4cc(F)cc(F)c4O)nnc3NC[C@H]2C1 (stereo partly drawn) [Example 15, 3-(6-(4-(((3R,5S)-4-((S)-2-(3,5-difluoro-2-hydroxyphenyl)-6,6a,7,8,9,10-hexahydro-5H-pyrazino[1′,2′:4,5]pyrazino[2,3-c]pyridazine-8-carbonyl)-3,5-dimethylpiperazin-1-yl)methyl)piperidin-1-yl)-1-oxoisoindolin-2-yl)piperidine-2,6-dione] | < 100 nM | > 75% | < 100 nM | – | – | 50 to 75% | –
C[C@@H]1CN(CC2CCN(c3ccc4c(c3)C(=O)N([C@@H]3CCC(=O)NC3=O)C4)CC2)C[C@H](C)N1C(=O)N1CCN2c3cc(-c4cc(F)cc(F)c4O)nnc3NC[C@H]2C1 [Example 16, (R)-3-(6-(4-(((3S,5R)-4-((S)-2-(3,5-difluoro-2-hydroxyphenyl)-6,6a,7,8,9,10-hexahydro-5H-pyrazino[1′,2′:4,5]pyrazino[2,3-c]pyridazine-8-carbonyl)-3,5-dimethylpiperazin-1-yl)methyl)piperidin-1-yl)-1-oxoisoindolin-2-yl)piperidine-2,6-dione] | < 100 nM | > 75% | < 100 nM | – | – | < 50% | –
C[C@@H]1CN(CC2CCN(c3ccc4c(c3)C(=O)N([C@H]3CCC(=O)NC3=O)C4)CC2)C[C@H](C)N1C(=O)N1CCN2c3cc(-c4cc(F)cc(F)c4O)nnc3NC[C@H]2C1 [Example 17, (S)-3-(6-(4-(((3S,5R)-4-((S)-2-(3,5-difluoro-2-hydroxyphenyl)-6,6a,7,8,9,10-hexahydro-5H-pyrazino[1′,2′:4,5]pyrazino[2,3-c]pyridazine-8-carbonyl)-3,5-dimethylpiperazin-1-yl)methyl)piperidin-1-yl)-1-oxoisoindolin-2-yl)piperidine-2,6-dione] | < 100 nM | > 75% | < 100 nM | – | – | 50 to 75% | –
